Laboratory results from US20170003277A1 (priority 2015, published 2017).

Legend:
[1] = tested on: THP-1 human monocyte cell line; experiment: Pathway enrichment (DAVID) in THP-1 cells, Example 9; assay type: cell-based; conditions: genes upregulated vs mannitol, 6 hours
Method: Nucleic Acids Res. 37, 1-13 (2009)]. Pathway enrichment results were visualized using volcano plots, plotting −log p-values versus enrichment scores. For GA MOA, to obtain top-gene lists of appropriate size (tens-hundreds) for use with DAVID, an absolute-value fold-change cutoff of 1.5 and p-value cutoff of 1e-3 were utilized to obtain gene lists for pathway enrichment. […] DAVID runs were conducted on Sep. […] Please note that the GO databases are updated daily (as noted on the GO site:www.geneontology.org/GO.downloads.ontology.shtml) and therefore performing the same enrichments on the same genesets may yield slightly varying results depending on the rundate. Pathway p-values may change slightly between runs conducted at different times; the overall picture of enriched pathways, however, is expected to remain consistent.
Performing the same enrichments on the same genesets may yield slightly varying results depending on the run date (GO databases are updated daily: www.geneontology.org/GO.downloads.ontology.shtml).

mouse splenocytes = experiment: Immunological cell type enrichment for genes modulated by GA in mouse splenocytes; assay type: cell-based; parameters: Score: scale not given here
Source text: Genome-wide expression profiles in cells from three different datasets in two different species (human, mouse) were studied. LIMMA was utilized to identify a genome-wide list of differentially expressed genes induced by GA in the primed and ex vivo stimulated mouse splenocytes, as well as in the THP-1 human monocyte cell line. Repeated-measures ANOVA was utilized to find a genome-wide list of genes modulated by GA in treated MS patients. Advanced enrichment algorithms were then applied to elucidate the pathways and cell types modulated by GA.
In addition to the shared induced effects discussed above, each system and platform clearly captured different aspects of GA's impact on the immune system. […] In human PBMCs, genes associated with immune cell types were modulated early in treatment (by month 3), including certain cell types affected in prior systems, but also distinct cell types, such as megakaryocytes and myeloid progenitors (Table 11).

[2] = B.GC.Sp.rnk, Upregulated (top 20 results)
[3] = DC.103.11b..LuLN.rnk, Downregulated (top 20 results)
[4] = DC.103.11b..PolyIC.Lu.rnk, Upregulated (top 20 results)
[5] = DC.103.11b.24..Lu.rnk, Upregulated (top 20 results)
[6] = DC.8.4.11b..SLN.rnk, Downregulated (top 20 results)
[7] = DC.Ilhilang.103.11b..SLN.rnk, Downregulated (top 20 results)
[8] = DC.Ilhilang.103.11blo.SLN.rnk, Downregulated (top 20 results)
[9] = DC.LC.Sk.rnk, Upregulated (top 20 results)
[10] = GN.Arth.BM.rnk, Downregulated (top 20 results)
[11] = GN.Arth.SynF.rnk, Downregulated (top 20 results)
[12] = GN.BI.rnk, Downregulated (top 20 results)
[13] = GN.BM.rnk, Downregulated (top 20 results)
[14] = GN.Thio.PC.rnk, Downregulated (top 20 results)
[15] = GN.UrAc.PC.rnk, Downregulated (top 20 results)
[16] = Mo.6C.Il..BM.rnk, Downregulated (top 20 results)
[17] = Mo.6C.Ilint.BI.rnk, Downregulated (top 20 results)
[18] = NK.H..MCMV1.Sp.rnk, Upregulated (top 20 results)
[19] = NK.MCMV1.Sp.rnk, Upregulated (top 20 results)
[20] = SC.CDP.BM.rnk, Downregulated (top 20 results)
[21] = SC.GMP.BM.rnk, Downregulated (top 20 results)
[22] = SC.MDP.BM.rnk, Downregulated (top 20 results)
[23] = SC.MEP.BM.rnk, Upregulated (top 20 results)
[24] = T.4FP3.25..AA.rnk, Upregulated (top 20 results)
[25] = T.4SP24int.Th.rnk, Downregulated (top 20 results)
[26] = T.8Eff.Sp.OT1.12hr.LisOva.rnk, Upregulated (top 20 results)
[27] = T.8Eff.Sp.OT1.24hr.LisOva.rnk, Upregulated (top 20 results)
[28] = T.8Eff.Sp.OT1.48hr.LisOva.rnk, Upregulated (top 20 results)
[29] = T.8Nve.Sp.OT1.rnk, Downregulated (top 20 results)
[30] = T.DPbl.Th.rnk, Upregulated (top 20 results)
[31] = T.ISP.Th.rnk, Upregulated (top 20 results)
[32] = Tgd.vg2.24ahi.e17.Th.rnk, Upregulated (top 20 results)
[33] = Tgd.vg3.24alo.e17.Th.rnk, Upregulated (top 20 results)
[34] = preB.FrC.BM.rnk, Upregulated (top 20 results)
[35] = preT.DN3B.Th.rnk, Upregulated (top 20 results)
[36] = preT.DN3.4.Th.rnk, Upregulated (top 20 results)
[37] = proB.CLP.BM.rnk, Downregulated (top 20 results)
[38] = proB.CLP.FL.rnk, Downregulated (top 20 results)
[39] = proB.FrA.FL.rnk, Upregulated (top 20 results)
[40] = proB.FrBC.FL.rnk, Upregulated (top 20 results)

Substance: glatiramer acetate [Copaxone®]
- Fold Enrichment ([1]; GO:0001503~ossification (GOTERM BP_ALL)): 4.068
- Fold Enrichment ([1]; GO:0007204~elevation of cytosolic calcium ion concentration (GOTERM BP_ALL)): 4.773
- Fold Enrichment ([1]; GO:0010557~positive regulation of macromolecule biosynthetic process (GOTERM BP_ALL)): 1.871
- Fold Enrichment ([1]; GO:0010628~positive regulation of gene expression (GOTERM BP_ALL)): 1.936
- Fold Enrichment ([1]; GO:0051241~negative regulation of multicellular organismal process (GOTERM BP_ALL)): 3.649
- Score (mouse splenocytes; [2]): 602.5
- p.val (mouse splenocytes; [2]): 1.01E−12
- Score (mouse splenocytes; [3]): 1152
- p.val (mouse splenocytes; [3]): 2.47E−06
- Score (mouse splenocytes; [4]): 705
- p.val (mouse splenocytes; [4]): 1.44E−14
- Score (mouse splenocytes; [5]): 738.3
- p.val (mouse splenocytes; [5]): 8.91E−12
- Score (mouse splenocytes; [6]): 1117
- p.val (mouse splenocytes; [6]): 1.86E−07
- Score (mouse splenocytes; [7]): 1151
- p.val (mouse splenocytes; [7]): 9.94E−08
- Score (mouse splenocytes; [8]): 1112
- p.val (mouse splenocytes; [8]): 5.07E−08
- Score (mouse splenocytes; [9]): 709.9
- p.val (mouse splenocytes; [9]): 2.89E−15
- Score (mouse splenocytes; [10]): 1218
- p.val (mouse splenocytes; [10]): 0
- Score (mouse splenocytes; [11]): 1160
- p.val (mouse splenocytes; [11]): 2.72E−11
- Score (mouse splenocytes; [12]): 1185
- p.val (mouse splenocytes; [12]): 6.66E−15
- Score (mouse splenocytes; [13]): 1212
- p.val (mouse splenocytes; [13]): 1.11E−16
- Score (mouse splenocytes; [14]): 1197
- p.val (mouse splenocytes; [14]): 6.39E−14
- Score (mouse splenocytes; [15]): 1145
- p.val (mouse splenocytes; [15]): 5.87E−14
- Score (mouse splenocytes; [16]): 1095
- p.val (mouse splenocytes; [16]): 1.71E−06
- Score (mouse splenocytes; [17]): 1107
- p.val (mouse splenocytes; [17]): 1.62E−05
- Score (mouse splenocytes; [18]): 770.8
- p.val (mouse splenocytes; [18]): 7.11E−15
- Score (mouse splenocytes; [19]): 793.3
- p.val (mouse splenocytes; [19]): 1.51E−14
- Score (mouse splenocytes; [20]): 1078
- p.val (mouse splenocytes; [20]): 0
- Score (mouse splenocytes; [21]): 1341
- p.val (mouse splenocytes; [21]): 1.56E−05
- Score (mouse splenocytes; [22]): 1206
- p.val (mouse splenocytes; [22]): 1.56E−05
- Score (mouse splenocytes; [23]): 641.2
- p.val (mouse splenocytes; [23]): 0
- Score (mouse splenocytes; [24]): 697.6
- p.val (mouse splenocytes; [24]): 2.76E−11
- Score (mouse splenocytes; [25]): 1040
- p.val (mouse splenocytes; [25]): 0
- Score (mouse splenocytes; [26]): 683
- p.val (mouse splenocytes; [26]): 0
- Score (mouse splenocytes; [27]): 661.8
- p.val (mouse splenocytes; [27]): 5.97E−14
- Score (mouse splenocytes; [28]): 587.7
- p.val (mouse splenocytes; [28]): 0
- Score (mouse splenocytes; [29]): 1095
- p.val (mouse splenocytes; [29]): 0
- Score (mouse splenocytes; [30]): 659.3
- p.val (mouse splenocytes; [30]): 0
- Score (mouse splenocytes; [31]): 584.9
- p.val (mouse splenocytes; [31]): 0
- Score (mouse splenocytes; [32]): 620
- p.val (mouse splenocytes; [32]): 9.88E−13
- Score (mouse splenocytes; [33]): 620.8
- p.val (mouse splenocytes; [33]): 2.72E−11
- Score (mouse splenocytes; [34]): 620.2
- p.val (mouse splenocytes; [34]): 0
- Score (mouse splenocytes; [35]): 568
- p.val (mouse splenocytes; [35]): 1.64E−10
- Score (mouse splenocytes; [36]): 560.7
- p.val (mouse splenocytes; [36]): 2.96E−10
- Score (mouse splenocytes; [37]): 1181
- p.val (mouse splenocytes; [37]): 1.35E−06
- Score (mouse splenocytes; [38]): 1115
- p.val (mouse splenocytes; [38]): 0
- Score (mouse splenocytes; [39]): 578.6
- p.val (mouse splenocytes; [39]): 7.17E−11
- Score (mouse splenocytes; [40]): 595.3
- p.val (mouse splenocytes; [40]): 0
